Data reported in paper PMC10192880 (Frontiers in Pharmacology, 2023).

Tests used:
clinical = assay: clinical
Protocol: This was an open-label, three-period, controlled before-and-after trial (China Clinical Trial Registry: ChiCTR1900024344). It was conducted at the Second Affiliated Hospital within Tianjin University of Traditional Chinese Medicine (Tianjin, China). The protocol was approved by the ethics committees of the Second Affiliated Hospital within Tianjin University of Traditional Chinese Medicine. Written informed consent was provided by all participants. This trial was in accordance with the Declaration of Helsinki 1964 and its later amendments.
Men and women aged 18–45 years participated in this trial if they were healthy and the EPHX1 A/A genotype was confirmed. The key exclusion criteria were coagulation disorders or allergies to drugs.
Our trial comprised three periods. […] After 3 days, individuals entered the second period, in which CDDP (10 pills, p. o., t.d.s.) was administered for 5 days.
Moreover, blood samples were taken from participants once a day before CDDP administration for assays of coagulation indices to ensure safety.

[1] = system: transfected EPHX1 A/G and BL cells; assay: MTT cell viability of transfected cells; format: cell-based, human; conditions: 0.0625–8.00 mg/mL for 24 h or 72 h, dose-dependent
Protocol: CDDP was manufactured by Tianjin Tasly Group (Tianjin, China). […] Transfected cells were plated evenly on a 96-well cell-culture plate with ∼8,000 cells/well. They were cultured for 24 h at 37°C. […] Subsequently, to each well was added 10 µL of 3-(4,5-Dimethylthiazol-2-yl)-2,5-diphenyltetrazolium bromide solution (5 mg/mL), and cells were allowed to incubate for an additional 4 h in an atmosphere of 5% CO2 at 37°C. Then, the cells were centrifugated and the […]. Finally, the blue-purple crystals were dissolved using dimethyl sulfoxide (150 µL) with agitation for 10 min. The absorbance of each well was determined at 490 nm. Cell viability (Supplementary Figure S1) was calculated according to the formula: Cell viability=absorbanceexperiment/absorbancecontrol×100%
Thus, the incubation time selected at 24 h.

[2] = by dose adjustment (residual drug converted into a dose), third period: warfarin + CDDP
[3] = by dose adjustment, first period: warfarin 3 mg p.o. alone
[4] = first period: warfarin 3 mg p.o. alone, HVs EPHX1 A/A
[5] = third period: warfarin 3 mg p.o. + CDDP 10 pills p.o., HVs EPHX1 A/A

Compound | AUC0-144 (clinical; [2]) | Cmax (clinical; [2]) | Tmax (clinical; [2]) | Vd (clinical; [2]) | AUC0-144 (clinical; [3]) | CL (clinical; [3]) | Cmax (clinical; [3]) | Tmax (clinical; [3]) | Vd (clinical; [3]) | AUC0-144 (clinical; [4]) | CL (clinical; [4]) | Cmax (clinical; [4]) | Tmax (clinical; [4]) | Vd (clinical; [4]) | AUC0-144 (clinical; [5]) | CL (clinical; [5]) | Cmax (clinical; [5]) | Tmax (clinical; [5]) | Vd (clinical; [5]) | also measured
CC(=O)C[C@H](c1ccccc1)c1c(O)c2ccccc2oc1=O [R-Warfarin] | 14594 ± 3088 ng/h/mL | 273.9 ± 58.10 ng/mL | 0.7143 ± 0.3934 h | 18445 ± 2408 mL | 11630 ± 2938 ng/h/mL | 210.3 ± 57.13 mL/h | 204.6 ± 71.38 ng/mL | 1.857 ± 1.435 h | 20505 ± 4506 mL | 11630 ± 2938 ng/h/mL | 210.3 ± 57.13 mL/h | 204.6 ± 71.38 ng/mL | 1.857 ± 1.435 h | 20505 ± 4506 mL | 14594 ± 3088 ng/h/mL | 164.8 ± 51.16 mL/h | 273.9 ± 58.10 ng/mL | 0.7143 ± 0.3934 h | 16283 ± 2164 mL | 
CC(=O)C[C@@H](c1ccccc1)c1c(O)c2ccccc2oc1=O [S-Warfarin] | 7223 ± 1727 ng/h/mL | 261.9 ± 54.50 ng/mL | 0.714 ± 0.393 h | 32429 ± 3754 mL | 5812 ± 1632 ng/h/mL | 466.0 ± 109.7 mL/h | 199.0 ± 76.90 ng/mL | 1.500 ± 1.414 h | 37594 ± 9569 mL | 5812 ± 1632 ng/h/mL | 466.0 ± 109.7 mL/h | 199.0 ± 76.90 ng/mL | 1.500 ± 1.414 h | 37594 ± 9569 mL | 7223 ± 1727 ng/h/mL | 374.1 ± 82.69 mL/h | 261.9 ± 54.50 ng/mL | 0.714 ± 0.393 h | 28630 ± 3437 mL | CL (clinical; [2]): 423.5 ± 91.18 mL/h
CC(=O)CC(c1ccccc1)c1c(O)c2ccccc2oc1=O (centres unmarked) [Warfarin] |  |  |  |  |  |  |  |  |  |  |  |  |  |  |  |  |  |  |  | cells' viability [1]: significantly decreased; CL (clinical; both, human, in vivo, po, 3 mg): 144.9 ± 36.87 mL/h; Cmax (clinical; both, human, in vivo, po, 3 mg): 403 ± 148 ng/mL; Tmax (clinical; both, human, in vivo, po, 3 mg): 1.86 ± 1.44 h; Vd (clinical; both, human, in vivo, po, 3 mg): 13393 ± 3036 mL
